From ChEMBL document CHEMBL6134813, “Arctigenin derivative TZOA restores mitochondrial homeostasis to combat rhabdovirus infections” (Eur J Med Chem, 2025)
Active and inactive are the calls of the source. The calls are words filed in the database; no cut-off is given here.

Experiments:
[1] = tested on: Infectious hematopoietic necrosis virus; experiment: Antiviral activity against IHNV infected in EPC cells (unknown origin) assessed as cristae of varying lengths with attached granules in inner membrane of mitochondria by TEM analysis; assay type: functional, organism-based
[2] = tested on: Infectious hematopoietic necrosis virus; experiment: Antiviral activity against IHNV infected in EPC cells (unknown origin) assessed as reduction in viral load for internalization at 25 uM incubated for 1 hr at 4 degreeC followed by 2 hrs of incubation at 25 degreeC by RT-qPCR analysis relative to control; assay type: functional; parameters: scale not given: the % may be the effect or the level left; details: time 3 hrs
[3] = tested on: Infectious hematopoietic necrosis virus; experiment: (§1) Antiviral activity against IHNV infected in juvenile rainbow trout assessed as decrease in viral titer in donor fishes on horizontal transmission between virus-infected donor fishes and non-infected recipient fishes at 25 uM immersed together in compound for 48 hrs; assay type: functional, organism-based
[4] = tested on: Infectious hematopoietic necrosis virus; experiment: as §1, with “viral G gene expression” for “viral titer”, “in spleen of recipient” for “in donor”, “hrs by qPCR analysis” for “hrs”; assay type: functional, organism-based
[5] = Cytotoxicity against EPC cells (unknown origin) assessed as cell viability up to 25 uM measured after 72 hrs by CCK8 assay; assay type: toxicity, cell-based
[6] = tested on: Infectious hematopoietic necrosis virus; experiment: Antiviral activity against IHNV infected in EPC cells (unknown origin) assessed as uniform sized nuclei at 25 uM measured after 72 hrs by fluorescence microscopy; assay type: functional, organism-based
[7] = tested on: Infectious hematopoietic necrosis virus; experiment: Antiviral activity against IHNV infected in EPC cells (unknown origin) assessed as inhibition of viral M gene expression measured after 72 hrs by RT-qPCR analysis; assay type: functional, organism-based; details: dose 0.1-100 µM
[8] = tested on: Infectious hematopoietic necrosis virus; experiment: Antiviral activity against IHNV infected in EPC cells (unknown origin) assessed as inhibition of viral replication at 25 uM pre-infected with virus for 6 hrs followed by compound addition measured after 72 hrs by RT-qPCR analysis relative to control; assay type: functional
[9] = tested on: Infectious hematopoietic necrosis virus; experiment: Antiviral activity against IHNV infected in EPC cells (unknown origin) assessed as reduction in viral G protein expression at 25 uM pretreated virus with compound for 1 hr followed by compound-treated virus infection in EPC cells measured after 72 hrs by RT-qPCR analysis relative to control; assay type: functional; parameters: scale not given: the % may be the effect or the level left
[10] = tested on: Infectious hematopoietic necrosis virus; experiment: Antiviral activity against IHNV infected in EPC cells (unknown origin) assessed as inhibition of viral N gene expression measured after 72 hrs by RT-qPCR analysis; assay type: functional, organism-based; details: dose 0.1-100 µM
[11] = tested on: Infectious hematopoietic necrosis virus; experiment: Antiviral activity against IHNV infected in juvenile rainbow trout assessed as increase in survival rate administered intraperitoneally measured for 14 days relative to control; assay type: functional; details: route ip; time 14 day
[12] = tested on: Infectious hematopoietic necrosis virus; experiment: Antiviral activity against IHNV infected in juvenile rainbow trout assessed as increase in IRF3 gene expression in spleen administered intraperitoneally measured after 2 days by RT-qPCR analysis; assay type: functional, organism-based; details: route ip, time 2.0 day
[13] = tested on: Infectious hematopoietic necrosis virus; experiment: Antiviral activity against IHNV infected in EPC cells (unknown origin) assessed as unchanged morphology in host cells at 25 uM pretreated virus with compound for 4 hrs followed by compound-treated virus infection in EPC cells measured after 72 hrs by microscopic analysis; assay type: functional, organism-based
[14] = tested on: Infectious hematopoietic necrosis virus; experiment: Antiviral activity against IHNV infected in juvenile rainbow trout assessed as increase in Mx1 gene expression in kidney administered intraperitoneally measured after 2 days by RT-qPCR analysis; assay type: functional, organism-based; details: route ip, time 2.0 day
[15] = tested on: Infectious hematopoietic necrosis virus; experiment: Antiviral activity against IHNV infected in EPC cells (unknown origin) assessed as mitochondrial length by TEM analysis (reference value: 0.2 to 0.7 um); assay type: functional
[16] = tested on: Infectious hematopoietic necrosis virus; experiment: Antiviral activity against IHNV infected in juvenile rainbow trout assessed as increase in ISG15 gene expression in spleen administered intraperitoneally measured after 2 days by RT-qPCR analysis; assay type: functional, organism-based; details: route ip, time 2.0 day
[17] = tested on: Infectious hematopoietic necrosis virus; experiment: Antiviral activity against IHNV infected in EPC cells (unknown origin) assessed as inhibition of viral G gene expression at 25 uM measured after 72 hrs by RT-qPCR analysis relative to control; assay type: functional
[18] = tested on: Infectious hematopoietic necrosis virus; experiment: Antiviral activity against IHNV infected in EPC cells (unknown origin) assessed as area of mitochondria by TEM analysis (reference value: 0.05 to 0.2 um2); assay type: functional
[19] = tested on: Infectious hematopoietic necrosis virus; experiment: Antiviral activity against IHNV infected in EPC cells (unknown origin) assessed as viral titer measured per 0.1 ml incubated for 96 hrs by Reed-Muench method (reference value: 1 10^7.77TCID50); assay type: functional
[20] = tested on: Infectious hematopoietic necrosis virus; experiment: Antiviral activity against IHNV infected in EPC cells (unknown origin) assessed as viral titer measured per 0.1 ml incubated for 48 hrs by Reed-Muench method (reference value: 1 10^5.75TCID50); assay type: functional
[21] = tested on: Infectious hematopoietic necrosis virus; experiment: Antiviral activity against IHNV infected in EPC cells (unknown origin) assessed as reduction in viral G protein expression at 25 uM pretreated virus with compound for 4 hrs followed by compound-treated virus infection in EPC cells measured after 72 hrs by RT-qPCR analysis relative to control; assay type: functional; parameters: scale not given: the % may be the effect or the level left
[22] = tested on: Infectious hematopoietic necrosis virus; experiment: Antiviral activity against IHNV infected in juvenile rainbow trout assessed as decrease in hemorrhage in kidney administered intraperitoneally measured after 2 days by H and E staining based analysis; assay type: functional, organism-based; details: route ip, time 2.0 day
[23] = Cytotoxicity against EPC cells (unknown origin) assessed as cell viability at 64 uM measured after 72 hrs by CCK8 assay; assay type: toxicity, cell-based
[24] = tested on: Infectious hematopoietic necrosis virus; experiment: Antiviral activity against IHNV infected in EPC cells (unknown origin) assessed as elongated rod-shaped mitochondria with double layered membrane by TEM analysis; assay type: functional, organism-based
[25] = tested on: Infectious hematopoietic necrosis virus; experiment: Antiviral activity against IHNV infected in juvenile rainbow trout assessed as decrease in viral G gene expression in kidney administered intraperitoneally measured after 1 to 4 days by RT-qPCR analysis; assay type: functional, organism-based; details: route ip, time 1-4 day
[26] = tested on: Infectious hematopoietic necrosis virus; experiment: Antiviral activity against IHNV infected in juvenile rainbow trout assessed as decrease in hemorrhage in spleen administered intraperitoneally measured after 2 days by H and E staining based analysis; assay type: functional, organism-based; details: route ip, time 2.0 day
[27] = tested on: Infectious hematopoietic necrosis virus; experiment: Antiviral activity against IHNV infected in juvenile rainbow trout assessed as decrease in viral titer in recipient fishes on horizontal transmission between virus-infected donor fishes and non-infected recipient fishes at 25 uM immersed together in compound for 48 hrs; assay type: functional, organism-based
[28] = tested on: Infectious hematopoietic necrosis virus; experiment: Antiviral activity against IHNV infected in EPC cells (unknown origin) assessed as uniform shaped nuclei at 25 uM measured after 72 hrs by fluorescence microscopy; assay type: functional, organism-based
[29] = tested on: Infectious hematopoietic necrosis virus; experiment: Antiviral activity against IHNV infected in EPC cells (unknown origin) assessed as mtDNA intact with mitochondria at 25 uM incubated for 72 hrs by TOMM20 dye based analysis; assay type: functional, organism-based
[30] = tested on: Infectious hematopoietic necrosis virus; experiment: Antiviral activity against IHNV infected in juvenile rainbow trout assessed as increase in ISG15 gene expression in kidney administered intraperitoneally measured after 2 days by RT-qPCR analysis; assay type: functional, organism-based; details: route ip, time 2.0 day

## COc1ccc(C[C@H]2COC(=O)[C@@H]2Cc2ccc(OCCCCCCCCn3cncn3)c(OC)c2)cc1OC
[1]
  Activity: Active
[2]
  Activity: 46%
[3]
  Activity: Active
[4]
  Activity: Active
[5]
  Activity: Non-toxic
[6]
  Activity: Active
[7]
  inhibition: Dose-dependent-effect
[8]
  inhibition at 25 µM: 80%
[9]
  Activity: 10%
[10]
  inhibition: Dose-dependent-effect
[11]
  Survival: 44%
[12]
  Activity: Active
[13]
  Activity: Active
[14]
  Activity: Active
[15]
  Activity: 0.8 um
[16]
  Activity: Active
[17]
  inhibition at 25 µM: > 90%
[18]
  Activity: 0.2 um2
[19]
  Activity: 1 10^5.48TCID50
[20]
  Activity: 1 10^2.45TCID50
[21]
  Activity: 67%
[22]
  Activity: Active
[23]
  Activity: Toxic
[24]
  Activity: Active
[25]
  Activity: Active
[26]
  Activity: Active
[27]
  Activity: Active
[28]
  Activity: Active
[29]
  Activity: Active
[30]
  Activity: Active
